Results taken from US5196447A, “Neristatin 1” (Arizona Board of Regents, a body Corporate of The State of …, priority 1991, dated 1993).
≈ marks a conversion by molar mass, not a printed value.

How the values were obtained:
protein kinase C [1] = assay: Competition for [26-3H] bryostatin 4 binding to protein kinase C (phosphatidylserine/TRITON X-100 mixed micelles)
protein kinase C [2] = assay: Usual phorbol ester binding conditions using reconstitution of protein kinase C in phosphatidylserine
[3] = Stability in recrystallization attempts / various solvents; assay type: physicochemical
P388 cell line = assay: Activity against the P388 lymphocytic leukemia cell line; assay type: cell-based, murine

SMILES: COC(=O)C=C1CC2C=CC(C)(C)C(=O)C34OC(=O)CC3CC(CC(O)C(C)OC(=O)CC(O)CC3CC(OC(=O)C(C)(C)C)C(C)(C)C(O)(CC(C1)O2)O3)O4 (stereo not shown) [neristatin 1]
- Ki (protein kinase C [1]; phosphatidylserine/TRITION X-100 mixed micelles, competition for [26-3H] bryostatin 4, neristatin 1: mean±SEM, 4 experiments): 124 ± 10 nM
- affinity for protein kinase C compared with bryostatin 4 (protein kinase C [1]; relative to bryostatin 4): at least two orders of magnitude less
- affinity for protein kinase C compared with phorbol 12,13-dibutyrate (protein kinase C [2]; relative to phorbol 12,13-dibutyrate): an order of magnitude less
- Ki (protein kinase C [2]; usual phorbol ester binding conditions, reconstitution in phosphatidylserine, neristatin 1: mean±sem, 3 experiments): 21.2 ± 1.3 nM
- stability of small samples in various solvents [3]: rapidly degraded in various solvents
- IC50 (P388 cell line; Mus musculus, read-out: ED50 (the source's name)): 10 µg/mL (≈ 12.6 µM)
- potency compared to bryostatin 5 (P388 cell line; relative to bryostatin 5): reduced but still significant potency
